According to patent US20230233569A1 (Revolution Medicines, Inc., priority 2020, published 2023):
Values joined by “and” are separate entries in the source; they are usually repeats but may differ in a detail not shown here. Equal values may be shown once. Read-outs that look alike come from different tables or passages of the source.

What was measured:
[1] = system: K-Ras G12C (NCI-H358 cells); assay: Potency assay: pERK (AlphaLISA SureFire or In-Cell Western); assay type: cell-based; details: Homo sapiens
Protocol: (§1) The purpose of this assay is to measure the ability of test compounds to inhibit K-Ras in cells. […] This procedure measures a decrease in cellular pERK in response to test compounds.
(§2) NCI-H358 cells were grown and maintained using media and procedures recommended by the ATCC. On the day prior to compound addition, cells were plated in 384-well cell culture plates (40 μl/well) and grown overnight in a 37° C., 5% CO2 incubator. Test compounds were prepared in 10, 3-fold dilutions in DMSO, with a high concentration of 10 mM. On the day of assay, 40 nL of test compound was added to each well of cell culture plate using an Echo550 liquid handler (LabCyte®). Concentrations of test compound were tested in duplicate. After compound addition, cells were incubated 4 hours at 37° C., 5% CO2. Following incubation, culture medium was removed and cells were washed once with phosphate buffered saline.
(§3) In some experiments, cellular pERK level was determined using the AlphaLISA SureFire Ultra p-ERK1/2 Assay Kit (PerkinElmer). Cells were lysed in 25 μL lysis buffer, with shaking at 600 RPM at room temperature. […] After a 2-hour incubation in the dark, 5 μL donor mix was added, plate was sealed, and incubated 2 hours at room temperature. Signal was read on an Envision plate reader (PerkinElmer) using standard AlphaLISA settings. Analysis of raw data was carried out in Excel (Microsoft) and Prism (GraphPad). Signal was plotted vs. the decadal logarithm of compound concentration, and IC50 was determined by fitting a 4-parameter sigmoidal concentration response model.
In other experiments, cellular pERK was determined by In-Cell Western. […] Fixed cells were washed 4 times for 5 minutes with TBS containing 0.1% Triton X-100 (TBST) and then blocked with 100 μL Odyssey blocking buffer (LI-COR) for 60 minutes at room temperature. […] Cells were washed 4 times for 5 minutes with TBST. Secondary antibody (IR-800CW rabbit, LI-COR, diluted 1:800) and DNA stain DRAQ5 (LI-COR, diluted 1:2000) were added and incubated 1-2 hours at room temperature. Cells were washed 4 times for 5 minutes with TBST. Plates were scanned on a LI-COR Odyssey CLx Imager. Analysis of raw data was carried out in Excel (Microsoft) and Prism (GraphPad). Signal was plotted vs. the decadal logarithm of compound concentration, and IC50 was determined by fitting a 4-parameter sigmoidal concentration response model.
as §1
as §2, with “mM. On day of” for “mM. On the day of”, “assay, 40 nl of test” for “assay, 40 nL of test”
as §3, with “μl” for “μL”, “sealed” for “sealed,”

KRAS G12C = KRAS G12C (Homo sapiens, UniProt P01116+P62937, G12C); assay: Disruption of BRAF RBD interaction with Ras (FRET / MOA assay, with Cyclophilin A); assay type: biochemical; details: KRAS G12C; read-out: KRAS G12C FRET data IC50
Summary of the method: (§4)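 Compound-driven ternary complex formation between nucleotide-loaded K-Ras and Cyclophilin A was measured as loss of BRAF RBD binding. Compounds (10-point 3-fold series, top 30 μM final) were incubated 3 h at 25 °C, then anti-His Eu-W1024 (10 nM) and anti-GST allophycocyanin (50 nM) added for 1.5 h. IC50 was taken from the TR-FRET ratio decrease versus DMSO.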

KRAS G12D = KRAS G12D (Homo sapiens, UniProt P01116+P62937, G12D); assay: as above; assay type: biochemical; details: read-out: KRAS G12D FRET data, IC50
Summary of the method: as §4

KRAS G12S = KRAS G12S (Homo sapiens, UniProt P01116+P62937, G12S); assay: as above; assay type: biochemical; details: read-out: KRAS G12S FRET data, IC50
Summary of the method: as §4

KRAS G12V = KRAS G12V (Homo sapiens, UniProt P01116+P62937, G12V); assay: as above; assay type: biochemical; details: KRAS G12V; read-out: KRAS G12V FRET data IC50
Summary of the method: as §4

KRAS G13C = KRAS G13C (Homo sapiens, UniProt P01116+P62937, G13C); assay: as above; assay type: biochemical; details: KRAS G13C; read-out: KRAS G13C FRET data IC50
Summary of the method: as §4

KRAS G13D = KRAS G13D (Homo sapiens, UniProt P01116+P62937, G13D); assay: as above; assay type: biochemical; details: KRAS G13D; read-out: KRAS G13D FRET data IC50
Summary of the method: as §4

KRAS WT = KRAS WT (Homo sapiens, UniProt P01116+P62937); assay: as above; assay type: biochemical; details: KRAS WT; read-out: KRAS WT FRET data IC50
Summary of the method: as §4

NRAS G12C = NRAS G12C (Homo sapiens, UniProt P01111+P62937, G12C); assay: as above; assay type: biochemical; details: NRAS G12C; read-out: NRAS G12C FRET data IC50
NCI-H358 (K-Ras G12C) = assay: CellTiter-Glo cell viability assay, 5-day treatment; assay type: cell-based; details: Homo sapiens
Summary of the method: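 Five-day compound treatment of plated cells; luminescent read after ~30 min at RT. Percent-of-DMSO data fit to a four-parameter logistic model.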

[2] = NCI-H358, H358 KRAS G12C, read-out: pERK EC50
[3] = NCI-H358, H358, K-Ras G12C, read-out: Additional H358 Cell Viability assay data (K-Ras G12C, IC50)

Chain of KRAS G12V (P01116 1-169 isoform P01116-2 G12V limits assumed): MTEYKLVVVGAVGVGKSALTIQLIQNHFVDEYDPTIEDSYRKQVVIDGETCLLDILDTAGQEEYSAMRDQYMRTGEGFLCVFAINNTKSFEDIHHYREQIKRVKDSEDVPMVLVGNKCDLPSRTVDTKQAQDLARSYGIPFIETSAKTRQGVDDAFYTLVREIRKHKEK
Chain of KRAS G12V (P62937 whole entry): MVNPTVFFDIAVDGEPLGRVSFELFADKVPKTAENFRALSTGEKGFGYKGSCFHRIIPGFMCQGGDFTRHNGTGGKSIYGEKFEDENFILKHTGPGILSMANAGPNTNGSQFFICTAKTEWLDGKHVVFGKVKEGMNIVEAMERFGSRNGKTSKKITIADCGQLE
Chain of KRAS G13D (P01116 1-169 isoform P01116-2 G13D limits assumed): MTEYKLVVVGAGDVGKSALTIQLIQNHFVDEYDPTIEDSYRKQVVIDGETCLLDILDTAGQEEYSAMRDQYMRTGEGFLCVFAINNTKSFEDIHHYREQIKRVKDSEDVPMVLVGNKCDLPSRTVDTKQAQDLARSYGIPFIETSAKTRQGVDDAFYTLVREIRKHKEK
Chain of KRAS G13D (P62937 whole entry): as the sequence (P62937 whole entry) above
Chain of KRAS G12C (P01116 1-169 isoform P01116-2 G12C): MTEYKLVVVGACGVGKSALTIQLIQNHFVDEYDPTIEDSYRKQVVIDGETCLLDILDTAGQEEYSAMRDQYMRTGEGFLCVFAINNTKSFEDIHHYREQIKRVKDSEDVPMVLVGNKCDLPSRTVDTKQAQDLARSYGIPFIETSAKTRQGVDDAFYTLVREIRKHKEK
Chain of KRAS G12C (P62937 whole entry): as the sequence (P62937 whole entry) above
Chain of KRAS G13C (P01116 1-169 isoform P01116-2 G13C): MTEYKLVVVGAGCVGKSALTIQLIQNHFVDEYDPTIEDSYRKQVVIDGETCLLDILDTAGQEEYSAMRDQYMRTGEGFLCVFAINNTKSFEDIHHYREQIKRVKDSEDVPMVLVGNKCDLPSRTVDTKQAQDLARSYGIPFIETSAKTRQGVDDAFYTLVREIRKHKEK
Chain of KRAS G13C (P62937 whole entry): as the sequence (P62937 whole entry) above
Chain of KRAS G12S (P01116 1-169 isoform P01116-2 G12S limits assumed): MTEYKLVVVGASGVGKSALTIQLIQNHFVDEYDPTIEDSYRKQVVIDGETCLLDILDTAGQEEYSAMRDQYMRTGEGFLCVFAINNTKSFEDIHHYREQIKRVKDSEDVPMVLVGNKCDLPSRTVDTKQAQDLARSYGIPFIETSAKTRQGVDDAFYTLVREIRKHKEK
Chain of KRAS G12S (P62937 whole entry): as the sequence (P62937 whole entry) above
Chain of KRAS WT (P01116 1-169 isoform P01116-2 limits assumed): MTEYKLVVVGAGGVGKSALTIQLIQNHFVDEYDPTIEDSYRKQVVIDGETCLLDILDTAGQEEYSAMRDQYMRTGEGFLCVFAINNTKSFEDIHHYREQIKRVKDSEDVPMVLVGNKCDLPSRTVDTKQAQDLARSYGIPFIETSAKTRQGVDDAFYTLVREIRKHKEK
Chain of KRAS WT (P62937 whole entry): as the sequence (P62937 whole entry) above
Chain of NRAS G12C (P01111 whole entry G12C): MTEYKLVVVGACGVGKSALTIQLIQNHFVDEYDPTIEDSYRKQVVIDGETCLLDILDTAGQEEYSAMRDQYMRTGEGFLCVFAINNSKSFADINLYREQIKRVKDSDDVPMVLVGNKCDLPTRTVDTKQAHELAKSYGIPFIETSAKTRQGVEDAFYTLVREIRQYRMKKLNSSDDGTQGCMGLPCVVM
Chain of NRAS G12C (P62937 whole entry): as the sequence (P62937 whole entry) above
Chain of KRAS G12D (P01116 1-169 isoform P01116-2 G12D limits assumed): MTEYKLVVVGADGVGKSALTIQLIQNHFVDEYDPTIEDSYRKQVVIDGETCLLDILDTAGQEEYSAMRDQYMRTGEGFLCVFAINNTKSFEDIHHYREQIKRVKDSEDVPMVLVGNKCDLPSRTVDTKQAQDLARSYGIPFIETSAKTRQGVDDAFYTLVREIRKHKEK
Chain of KRAS G12D (P62937 whole entry): as the sequence (P62937 whole entry) above

SMILES | EC50 [1, 2] [µM] | IC50 (KRAS G12C) | IC50 (KRAS G12D) [µM] | IC50 (KRAS G12S) | IC50 (KRAS G12V) | IC50 (KRAS G13C) | IC50 (KRAS G13D) | IC50 (KRAS WT) | IC50 (NRAS G12C) | IC50 (NCI-H358 (K-Ras G12C); [3]) [µM] | EC50 ([1]; NCI-H358, read-out: pERK EC50) [µM] | IC50 (NCI-H358 (K-Ras G12C); NCI-H358, read-out: Additional H358 Cell Viability assay data (K-Ras G12C, IC50, uM), H358, K-Ras G12C) [µM]
C=CC(=O)N1CC[C@H](C(=O)N(C)[C@H](C(=O)N[C@H]2Cc3cc(O)cc(c3)-c3ccc4c(C(C)(C)C#N)c(-c5ccccc5CCOC)n(c4c3)CC(C)(C)COC(=O)[C@@H]3CCCN(N3)C2=O)C(C)C)C1 [Example A12] | < 5 |  |  |  |  |  |  |  |  |  |  | 
C=CC(=O)N1CC[C@H](C(=O)N(C)[C@H](C(=O)N[C@H]2Cc3cccc(c3)-c3ccc4c(c3)c(c(-c3cccnc3COC)n4CC)CC(C)(C)COC(=O)[C@@H]3CCCN(N3)C2=O)C(C)C)C1 [Example A65] | < 5 |  |  |  |  |  |  |  |  | 0.1 to 1 |  | 
CCn1c(-c2cncnc2)c2c3cc(ccc31)-c1cc(O)cc(c1)C[C@H](NC(=O)[C@H](C(C)C)N(C)C(=O)[C@H]1CCN(C(=O)C#CCN(C)C)C1)C(=O)N1CCC[C@H](N1)C(=O)OCC(C)(C)C2 [Example A108] | < 5 | < 0.01 µM | 1 to 10 | 1 to 10 µM | 1 to 10 µM | 0.01 to 0.1 µM | 1 to 10 µM | 1 to 10 µM | < 0.01 µM | < 0.01 |  | 
C=CC(=O)N1CC[C@H](C(=O)N(C)[C@H](C(=O)N[C@H]2Cc3cc(O)cc(c3)-c3ccc4c(c3)c(c(-c3cc(CN(C)C)cnc3COC)n4CC)CC(C)(C)COC(=O)[C@@H]3CCCN(N3)C2=O)C(C)C)C1 [Example A149] | < 5 | 0.01 to 0.1 µM | 1 to 10 | 0.1 to 1 µM | 0.1 to 1 µM | 0.1 to 1 µM | 0.1 to 1 µM | 0.1 to 1 µM | 0.01 to 0.1 µM | 0.01 to 0.1 |  | 
CCn1c(-c2cccnc2COC)c2c3cc(ccc31)-c1cc(O)cc(c1)C[C@H](NC(=O)[C@@H](C(C)C)N(C)C(=O)[C@H]1CCN(C(=O)C#CCN(C)C)C1)C(=O)N1CCC[C@H](N1)C(=O)OCC(C)(C)C2 [Example A156] | < 5 | 0.01 to 0.1 µM | 1 to 10 | > 10 µM | > 10 µM | 1 to 10 µM | 1 to 10 µM | > 10 µM | 0.1 to 1 µM | 0.01 to 0.1 |  | 
C=CC(=O)N1CC[C@H](C(=O)N(C)[C@H](C(=O)N[C@H]2Cc3cc(O)cc(c3)-c3ccc4c(c3)c(c(-c3cnn(C)c3[C@H](C)OC)n4CC)CC(C)(C)COC(=O)[C@@H]3CCCN(N3)C2=O)C(C)C)C1 [Example A166] | < 5 |  |  |  |  |  |  |  |  |  |  | 
CC#CC(=O)N1CC[C@H](C(=O)N(C)[C@@H](C(=O)N[C@H]2Cc3cc(O)cc(c3)-c3ccc4c(c3)c(c(-c3cccnc3[C@H](C)OC)n4CC)CC(C)(C)COC(=O)[C@@H]3CCCN(N3)C2=O)C(C)C)C1 [Example A199] |  |  |  |  |  |  |  |  |  |  | < 5 | 0.1 to 1
CCn1c(-c2cccnc2[C@H](C)OC)c2c3cc(ccc31)-c1cccc(n1)C[C@H](NC(=O)[C@H](C(C)C)N1CC[C@@]3(CCN(C(=O)C#C[C@@H]4COCCN4C)C3)C1)C(=O)N1CCC[C@H](N1)C(=O)OCC(C)(C)C2 [Example A549] | < 5 |  |  |  |  |  |  |  |  | < 0.01 |  | 

Other lines, results leading:

EC50 [1, 2] [µM] | IC50 (KRAS G12C) | IC50 (KRAS G12D) [µM] | IC50 (KRAS G12S) | IC50 (KRAS G12V) | IC50 (KRAS G13C) | IC50 (KRAS G13D) | IC50 (KRAS WT) | IC50 (NRAS G12C) | IC50 (NCI-H358 (K-Ras G12C); [3]) [µM] | EC50 ([1]; NCI-H358, read-out: pERK EC50) [µM] | IC50 (NCI-H358 (K-Ras G12C); NCI-H358, read-out: Additional H358 Cell Viability assay data (K-Ras G12C, IC50, uM), H358, K-Ras G12C) [µM] | SMILES
< 5 | 0.1 to 1 µM | > 10 | > 10 µM | 1 to 10 µM | 1 to 10 µM | > 10 µM | 1 to 10 µM | 0.1 to 1 µM |  |  |  | C=CC(=O)N1CC(OC[C@H](C(=O)N[C@H]2Cc3cccc(c3)-c3ccc4c(c3)c(c(-c3cccnc3[C@H](C)OC)n4CC)CC(C)(C)COC(=O)[C@@H]3CCCN(N3)C2=O)C(C)C)C1 (racemic) [Example A483]
< 5 | 0.1 to 1 µM and 1 to 10 µM | > 10 | 1 to 10 µM and > 10 µM | 1 to 10 µM and > 10 µM | 1 to 10 µM and > 10 µM | 1 to 10 µM and > 10 µM | 1 to 10 µM and > 10 µM | 0.1 to 1 µM and 1 to 10 µM |  |  |  | C=CC(=O)N1CC[C@H](C(=O)N(C)[C@H](C(=O)N[C@H]2Cc3cc(O)cc(c3)-c3ccc4c(c3)c(c(-c3ccc5c(c3)CN(C)C5)n4CC)CC(C)(C)COC(=O)[C@@H]3CCCN(N3)C2=O)C(C)C)C1 [Example A212]
< 5 | 0.1 to 1 µM and 1 to 10 µM | > 10 | 1 to 10 µM and > 10 µM | 1 to 10 µM and > 10 µM | 0.1 to 1 µM and > 10 µM |  | 1 to 10 µM and > 10 µM |  |  |  |  | C=CC(=O)N1CC[C@]2(CCN([C@H](C(=O)N[C@H]3Cc4cc(O)cc(c4)-c4ccc5c(c4)c(c(-c4ccccc4CCOC)n5CC)CC(C)(C)COC(=O)[C@@H]4CCCN(N4)C3=O)C(C)C)C2=O)C1 [Example A216]
< 5 | 1 µM to 10 µM and > 10 µM (2×) | > 10 | > 10 µM | > 10 µM | 1 µM to 10 µM and > 10 µM (2×) | > 10 µM | > 10 µM | 1 µM to 10 µM and > 10 µM (2×) |  |  |  | C=CC(=O)N1CCC(C(=O)N(C)C(C(=O)NC2Cc3nc(cs3)-c3ccc4c(c3)c(c(-c3cccnc3C(C)OC)n4CC)CC(C)(C)COC(=O)C3CCCN(N3)C2=O)C(C)C)C1 (centres unmarked) [Example A279]
< 5 |  |  |  |  |  |  |  | < 0.01 µM | < 0.01 |  |  | CCn1c(-c2cccnc2[C@H](C)OC)c2c3cc(ccc31)-c1cccc(c1)C[C@H](NC(=O)[C@H](C(C)C)N(C)C(=O)[C@H]1CCN(C(=O)C#C[C@@H]3CCO3)C1)C(=O)N1CCC[C@H](N1)C(=O)OCC(C)(C)C2 [Example A509]
< 5 |  |  |  |  |  |  |  |  | < 0.01 |  |  | CCn1c(-c2cccnc2[C@H](C)OC)c2c3cc(ccc31)-c1cccc(c1)C[C@H](NC(=O)[C@H](C(C)C)N1CC[C@@]3(CCN(C(=O)C#C[C@@H]4COCCN4C4COC4)C3)C1=O)C(=O)N1CCC[C@H](N1)C(=O)OCC(C)(C)C2 [Example A566]
